Laboratory results reported in patent US6737383B1, “Herbicidal oxadiazolidines” (priority 1999, dated 2004).

What was measured:
[1] = tested on: rape; assay: Test B pre/postemergence rape; format: in vivo, Brassica napus
Summary of the method: (§1)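 Response is a visual 0-to-10 score relative to untreated plants, where 0 means no effect and 10 means complete control, taken twelve to sixteen days after application. Treatments went onto soil at planting and onto foliage of 1- to 4-leaf plants, using a surfactant-containing non-phytotoxic solvent.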

[2] = tested on: surinam grass; assay: Test B pre/postemergence surinam grass; format: in vivo, Brachiaria decumbens
Summary of the method: as §1

[3] = tested on: bamyardgrass; assay: Test B flood test barnyardgrass; format: in vivo, Echinochloa crus-galli
Summary of the method: (§2)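 Plants were grown to the 2-leaf stage before treatment with test chemical, then held in a greenhouse for twelve to sixteen days. Injury was visually rated against untreated controls on a 0–10 scale, where 0 is no effect and 10 is complete control.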

[4] = tested on: sugar beet; assay: Test B pre/postemergence sugar beet; format: in vivo, Beta vulgaris
Summary of the method: as §1

[5] = tested on: smallflower flatsedge; assay: Test B flood test smallflower flatsedge; format: in vivo, Cyperus difformis
Summary of the method: as §2

[6] = tested on: corn; assay: Test B pre/postemergence corn; format: in vivo, Zea mays
Summary of the method: as §1

[7] = tested on: duck salad; assay: Test B flood test duck salad; format: in vivo, Heteranthera limosa
Summary of the method: as §2

[8] = tested on: wheat; assay: Test B pre/postemergence wheat; format: in vivo, Triticum aestivum
Summary of the method: as §1

[9] = tested on: cocklebur; assay: Test B pre/postemergence cocklebur; format: in vivo, Xanthium strumarium
Summary of the method: as §1

[10] = tested on: velvetleaf; assay: Test B pre/postemergence velvetleaf; format: in vivo, Abutilon theophrasti
Summary of the method: as §1

[11] = tested on: crabgrass; assay: Test B pre/postemergence crabgrass; format: in vivo, Digitaria sanguinalis
Summary of the method: as §1

[12] = tested on: wild oat; assay: Test B pre/postemergence wild oat; format: in vivo, Avena fatua
Summary of the method: as §1

[13] = tested on: purple nutsedge; assay: Test B pre/postemergence purple nutsedge; format: in vivo, Cyperus rotundus
Summary of the method: as §1

[14] = tested on: blackgrass; assay: Test B pre/postemergence blackgrass; format: in vivo, Alopecurus myosuroides
Summary of the method: as §1

[15] = tested on: rice; assay: Test B flood test rice; format: in vivo, Oryza sativa
Summary of the method: as §2

[16] = tested on: bedstraw; assay: Test B pre/postemergence bedstraw; format: in vivo, Galium aparine
Summary of the method: as §1

[17] = tested on: soybean; assay: Test B pre/postemergence soybean; format: in vivo, Glycine max
Summary of the method: as §1

[18] = Postemergence, Rate 62 g/ha, scale 0 to 10, 0 is no effect, 10 is complete control
[19] = Postemergence, Rate 250 g/ha, scale 0 to 10, 0 no effect, 10 complete control
[20] = Preemergence, Rate 62 g/ha, scale 0 to 10, 0 is no effect, 10 is complete control
[21] = Preemergence, Rate 125 g/ha, scale 0 to 10 (0 no effect, 10 complete control)
[22] = Preemergence, Rate 250 g/ha, scale of 0 to 10 where 0 is no effect and 10 is complete control
[23] = Preemergence, Rate 500 g/ha, scale 0 (no effect) to 10 (complete control)
[24] = Rate 125 g/ha, Postemergence, scale 0 to 10, 0 no effect, 10 complete control
[25] = Rate 500 g/ha, Postemergence, 0 to 10 scale (0 no effect, 10 complete control)
[26] = Rate 125 g/ha, Postemergence section (flood test species), scale 0 to 10, 0 no effect, 10 complete control
[27] = Rate 500 g/ha, Postemergence section of Table B, 0 to 10 scale (0 no effect, 10 complete control)
[28] = flood test, listed under Postemergence, Rate 250 g/ha, scale 0 to 10, 0 no effect, 10 complete control

SMILES: Cc1ccccc1-n1c(=O)on(C(=O)N(c2ccc(Cl)cc2)C(C)C)c1=O [Compound 41]
- Rape plant response rating [1, 18]: 0
- Rape plant response rating [1, 19]: 0
- Plant response rating, Rape [1, 20]: 0
- Plant response rating, Rape [1, 21]: 0
- Plant response rating, Rape [1, 22]: 0
- Rape plant response rating [1, 23]: 0
- Rape plant response rating [1, 24]: 0
- Rape plant response rating [1, 25]: 0
- B. signalgrass plant response rating [2, 18]: 0
- B. signalgrass plant response rating [2, 19]: 0
- Plant response rating, B. signalgrass [2, 20]: 0
- Plant response rating, B. signalgrass [2, 21]: 0
- Plant response rating, B. signalgrass [2, 22]: 4
- B. signalgrass plant response rating [2, 23]: 7
- B. signalgrass plant response rating [2, 24]: 0
- B. signalgrass plant response rating [2, 25]: 0
- Barnyardgrass plant response rating [3, 18]: 0
- Barnyardgrass plant response rating [3, 26]: 0
- Barnyardgrass plant response rating [3, 27]: 0
- Barnyardgrass plant response rating [3, 28]: 0
- Sugarbeets plant response rating [4, 18]: 0
- Sugarbeets plant response rating [4, 19]: 0
- Plant response rating, Sugarbeets [4, 20]: 0
- Plant response rating, Sugarbeets [4, 21]: 0
- Plant response rating, Sugarbeets [4, 22]: 0
- Sugarbeets plant response rating [4, 23]: 0
- Sugarbeets plant response rating [4, 24]: 0
- S. Flatsedge plant response rating [5, 18]: 0
- S. Flatsedge plant response rating [5, 26]: 0
- S. Flatsedge plant response rating [5, 28]: 0
- Corn plant response rating [6, 18]: 0
- Corn plant response rating [6, 19]: 0
- Plant response rating, Corn [6, 20]: 0
- Plant response rating, Corn [6, 21]: 0
- Plant response rating, Corn [6, 22]: 0
- Corn plant response rating [6, 23]: 0
- Corn plant response rating [6, 24]: 0
- Corn plant response rating [6, 25]: 0
- Ducksalad plant response rating [7, 18]: 0
- Ducksalad plant response rating [7, 26]: 0
- Ducksalad plant response rating [7, 27]: 0
- Ducksalad plant response rating [7, 28]: 0
- Wheat plant response rating [8, 18]: 0
- Wheat plant response rating [8, 19]: 0
- Plant response rating, Wheat [8, 20]: 0
- Plant response rating, Wheat [8, 21]: 0
- Plant response rating, Wheat [8, 22]: 0
- Wheat plant response rating [8, 23]: 0
- Wheat plant response rating [8, 24]: 0
- Cocklebur plant response rating [9, 18]: 0
- Cocklebur plant response rating [9, 19]: 1
- Plant response rating, Cocklebur [9, 20]: 0
- Plant response rating, Cocklebur [9, 21]: 0
- Plant response rating, Cocklebur [9, 22]: 0
- Cocklebur plant response rating [9, 23]: 0
- Cocklebur plant response rating [9, 24]: 0
- Cocklebur plant response rating [9, 25]: 3
- Velvetleaf plant response rating [10, 18]: 0
- Velvetleaf plant response rating [10, 19]: 0
- Plant response rating, Velvetleaf [10, 20]: 0
- Plant response rating, Velvetleaf [10, 21]: 0
- Plant response rating, Velvetleaf [10, 22]: 0
- Velvetleaf plant response rating [10, 23]: 0
- Velvetleaf plant response rating [10, 24]: 0
- Crabgrass plant response rating [11, 18]: 0
- Crabgrass plant response rating [11, 19]: 5
- Plant response rating, Crabgrass [11, 20]: 3
- Plant response rating, Crabgrass [11, 21]: 4
- Plant response rating, Crabgrass [11, 22]: 8
- Crabgrass plant response rating [11, 23]: 10
- Crabgrass plant response rating [11, 24]: 1
- Crabgrass plant response rating [11, 25]: 7
- Wild oats plant response rating [12, 18]: 0
- Wild oats plant response rating [12, 19]: 0
- Plant response rating, Wild oats [12, 21]: 0
- Plant response rating, Wild oats [12, 22]: 0
- Wild oats plant response rating [12, 23]: 4
- Wild oats plant response rating [12, 24]: 0
- Nutsedge plant response rating [13, 18]: 0
- Nutsedge plant response rating [13, 19]: 0
- Plant response rating, Nutsedge [13, 20]: 0
- Plant response rating, Nutsedge [13, 21]: 0
- Plant response rating, Nutsedge [13, 22]: 0
- Nutsedge plant response rating [13, 23]: 0
- Nutsedge plant response rating [13, 24]: 0
- Nutsedge plant response rating [13, 25]: 0
- Blackgrass plant response rating [14, 18]: 0
- Blackgrass plant response rating [14, 19]: 3
- Plant response rating, Blackgrass [14, 20]: 0
- Plant response rating, Blackgrass [14, 21]: 0
- Plant response rating, Blackgrass [14, 22]: 2
- Blackgrass plant response rating [14, 23]: 4
- Blackgrass plant response rating [14, 24]: 0
- Blackgrass plant response rating [14, 25]: 4
- Rice plant response rating [15, 18]: 0
- Rice plant response rating [15, 26]: 0
- Rice plant response rating [15, 27]: 0
- Rice plant response rating [15, 28]: 0
- Bedstraw plant response rating [16, 18]: 0
- Plant response rating, Bedstraw [16, 20]: 0
- Plant response rating, Bedstraw [16, 21]: 0
- Plant response rating, Bedstraw [16, 22]: 0
- Bedstraw plant response rating [16, 23]: 0
- Soybean plant response rating [17, 18]: 3
- Soybean plant response rating [17, 19]: 4
- Plant response rating, Soybean [17, 20]: 0
- Plant response rating, Soybean [17, 21]: 0
- Plant response rating, Soybean [17, 22]: 0
- Soybean plant response rating [17, 23]: 0
- Soybean plant response rating [17, 24]: 3
